Experimental data reported in ChEMBL document CHEMBL1154386, “Synthesis, characterization and in vitro evaluation of new oxorhenium- and oxotechnetium-CCK4 derivatives as molecular imaging agents for CCK2-receptor targeting” (Eur J Med Chem, 2010).
Starred links: 1 amine or outer side, 2 acyl side, 3 side chain; linkers in the order of their positions; H or OH if unused. Non-standard residues stand in square brackets, D forms with d. Residues, ends and D or L forms follow the SMILES beside them. *: point of attachment. Acetyl(2-STrt) = O=C(CSC(c1ccccc1)(c1ccccc1)c1ccccc1)*; X1 = Oc1ccc(NC(=S)[*:2])cc1N[*:1]; Nle = CCCC[C@H](N)C(=O)O; Ahx = NCCCCCC(=O)O; βAla = NCCC(=O)O

Biological target: T1, Gastrin/cholecystokinin type B receptor (Homo sapiens) (UniProt P32239)
T1 sequence (whole entry): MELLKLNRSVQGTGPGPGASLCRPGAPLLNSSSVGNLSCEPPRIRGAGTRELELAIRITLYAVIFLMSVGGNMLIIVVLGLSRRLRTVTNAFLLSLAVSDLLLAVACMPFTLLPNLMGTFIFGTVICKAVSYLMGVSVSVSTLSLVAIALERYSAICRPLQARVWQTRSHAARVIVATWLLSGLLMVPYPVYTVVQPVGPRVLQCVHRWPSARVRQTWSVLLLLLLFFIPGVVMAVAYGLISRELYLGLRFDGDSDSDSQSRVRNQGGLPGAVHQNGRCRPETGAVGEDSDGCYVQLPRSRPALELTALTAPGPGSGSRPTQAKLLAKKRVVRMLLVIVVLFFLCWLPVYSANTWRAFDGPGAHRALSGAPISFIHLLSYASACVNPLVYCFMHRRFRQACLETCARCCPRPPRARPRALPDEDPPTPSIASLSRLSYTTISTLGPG
Assay: Agonist activity at human CCK2 receptor expressed in COS7 cells assessed as stimulation of [3H]inositol phosphate formation
Format: functional, cell-based
Conditions: COS-7

Row | ED50 [nM] | Structure (SMILES)
1 | 84.5 | CCCC[C@H](NC(=O)[C@H](Cc1c[nH]c2ccccc12)NC(=S)Nc1ccc(O)c(NC(=O)CNC(=O)CSC(c2ccccc2)(c2ccccc2)c2ccccc2)c1)C(=O)N[C@@H](CC(=O)O)C(=O)N[C@@H](Cc1ccccc1)C(=O)O ({Acetyl(2-STrt)}-G[X1]W[Nle]DF-OH)
2 | 5.01 | CCCC[C@H](NC(=O)[C@H](Cc1c[nH]c2ccccc12)NC(=O)CCCCCNC(=O)CCCCCNC(=S)Nc1ccc(O)c(NC(=O)CNC(=O)CSC(c2ccccc2)(c2ccccc2)c2ccccc2)c1)C(=O)N[C@@H](CC(=O)O)C(=O)N[C@@H](Cc1ccccc1)C(N)=O ({Acetyl(2-STrt)}-G[X1][Ahx][Ahx]W[Nle]DF-NH2)
3 | 3.1 | CCCC[C@H](NC(=O)[C@H](Cc1c[nH]c2ccccc12)NC(=O)CCNC(=O)CCNC(=S)Nc1ccc(O)c(NC(=O)CNC(=O)CSC(c2ccccc2)(c2ccccc2)c2ccccc2)c1)C(=O)N[C@@H](CC(=O)O)C(=O)N[C@@H](Cc1ccccc1)C(N)=O ({Acetyl(2-STrt)}-G[X1][βAla][βAla]W[Nle]DF-NH2)
